“And” between values parts separate entries of the source, which are not always exact repeats. Equal entries are not always repeated.
How the values were obtained:
protease = test: Protease activity in NRK-52E cell extract; format: biochemical; conditions: 0.1 μM and 10 μM
Experimental: (§1) As a follow up to Example 8, the effects of the EndoG inhibitors PNR-3-80 and PNR-3-82, at 0.1 μM and 10 μM each, on the activities of four other enzymes including RNase A, protease, LDH, and SOD in NRK-52E cell extract were examined. NRK-52E cells were grown to ˜80% confluence in […]. The medium was aspirated and the cells were rinsed with ice cold 1×PBS, pH 7.4. The cells were lysed in 50 mM Tris-HCl, pH 7.4, 150 mM NaCl, 1% Triton X-100 for 10 min on ice and then briefly sonicated. Cell debris was removed by centrifugation at 13,000×g for 10 min at 4° C. The supernatant was collected and stored at −80° C. until use. LDH, Protease, Superoxide dismutase (SOD), and Ribonuclease A (RNase A) activities were measured by using CytoTox 96® Non-Radioactive Cytotoxicity Assay kit (Promega, Madison, Wis.), Protease Fluorescent Detection kit (Sigma-Aldrich, Saint Louis, Mo.), SOD determination kit (Sigma-Aldrich, Saint Louis, Mo.), and Ribonuclease A Detection kit (Sigma-Aldrich, Saint Louis, Mo.), respectively, according to the manufacturer's instructions.

RNase A = test: Ribonuclease A activity in NRK-52E cell extract; format: biochemical; conditions: 0.1 μM and 10 μM
Experimental: as §1

EndoG = target: T1, EndoG (Homo sapiens, UniProt Q14249); test: High-throughput EndoG screening assay; format: biochemical
T1 sequence (Q14249 49-297): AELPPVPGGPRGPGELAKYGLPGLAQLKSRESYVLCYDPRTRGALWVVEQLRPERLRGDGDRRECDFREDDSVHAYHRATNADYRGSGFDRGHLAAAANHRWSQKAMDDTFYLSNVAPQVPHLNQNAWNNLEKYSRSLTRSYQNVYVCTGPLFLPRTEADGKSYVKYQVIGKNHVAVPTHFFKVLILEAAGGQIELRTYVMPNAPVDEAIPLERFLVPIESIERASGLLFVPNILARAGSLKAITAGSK
Experimental: A reaction mixture was prepared in each well of a white 96-well plate (Costar, Corning, N.Y.) as follows: 0.25 μM Cy5.5-labeled oligonucleotide (described in US provisional patent filed Oct. 19, 2012, Ser. No. 61/716,097) 0.3 mM MgCl2, 10 mM Tris-HCl, pH 7.4, 1 μl DMSO containing 5 or 50 ng of test compound, and nuclease-free water for a total reaction volume of 100 μl. The background (negative control) and uninhibited EndoG samples were measured using DMSO only, or DMSO containing recombinant EndoG (4 μg/ml), respectively. After addition of EndoG, fluorescence intensity was kinetically measured on a Bio-Tek Synergy 4.0 plate reader at 37° C. and mean velocity (mRFU/min) within 20 min was automatically calculated by the plate reader. The background was subtracted prior to the calculation of EndoG activity (%). The percent of EndoG activity was calculated from the mean velocity of a compound divided by the mean velocity of DMSO with recombinant EndoG, and the obtained value multiplied by 100.

SOD = SOD activity in NRK-52E cell extract; format: biochemical; conditions: 0.1 μM and 10 μM
Experimental: as §1

NS3 helicase = target: T2, NS3 helicase (Hepatitis C virus genotype 1b, UniProt P26663); test: Gel-based helicase assay; format: biochemical, HCV; conditions: standard helicase assay
T2 construct: analyze the helicase activity of NS3 helicase in the presence of the compounds; made in house
Experimental: Benchtop unwinding assays were performed to analyze the helicase activity of NS3 helicase in the presence of the compounds. The unwinding reaction was initiated by mixing the right (N53, compound, assay buffer) and left (radiolabeled substrate, ATP, assay buffer) reactions, which was then quenched. The ssDNA product formed over time is separated from dsDNA substrate by 20% native PAGE. The ratio of dsDNA substrate to ssDNA product is quantified using ImageQuant and the fraction of substrate unwound at each time-point is plotted as a function of time using Kaleidagraph software.

HCV NS3 helicase = target: T3, HCV NS3 helicase (Hepatitis C virus genotype 1b, UniProt P26663); test: Fluorescence-based helicase assay; format: biochemical; conditions: IC50 for inhibition of NS3 helicase, mean ± standard deviation of three data sets
T3 construct: analyze the helicase activity of NS3 helicase in the presence of the compounds; made in house
Experimental: A library of compounds was screened using a previously validated quantitative assay that measures helicase activity over time. The assay relies upon helicase-catalyzed displacement of a fluorescently-labeled oligonucleotide (FIG. 13A). The concentration of enzyme and compounds used was 250 nM and 20 μM respectively. The experiments were performed in triplicate. […] Three potential helicase inhibitors were identified using the fluorescence based assay. […] The inhibitor compounds identified in our screen were ITBA-3-79, ITBA-3-82 and ITBA-3-85 (FIG. 14A). […] The IC50 value for ITBA-3-79, ITBA-3-82 and ITBA-3-85-mediated inhibition of NS3 helicase ranged˜20 μM (FIG. 14C). The ATPase activity of NS3 (50 μM) was analyzed in the presence of ITBA-3-79, ITBA-3-82 and ITBA-3-85 using a coupled spectrophotometric assay (Raney and Benkovic 1995, (FIG. 15). The protease activity of NS3 was analyzed in the presence of ITBA-3-79, ITBA-3-82 and ITBA-3-85 by using 50 nM NS3-4A and 100 nM substrate (Ac-Asp-Glu-Asp-EDANS-Glu-Glu-Abu-L-Lactoyl-Ser-Lys DABCYL-NH2, FIG. 15. The NS3 helicase activity was analyzed in the presence of 25 μM ITBA-3-79, ITBA-3-82 and ITBA-3-85 (FIG. 16).
A fluorescence based quantitative assay that measures helicase activity over time was employed to screen the compounds. The concentration of enzyme and compounds used was 250 nM and 20 μM respectively. Helicase catalyzes the unwinding of a FAM-labeled dsDNA and the resulting increase in fluorescence is plotted (λex-485 nm; λem, −528 nm). The slope of the initial part of the plot was used to calculate the percentage helicase activity. […] The IC50 value for ITBA-3-79, ITBA-3-82 and ITBA-3-85-mediated inhibition of NS3 helicase was determined using the same assay.

T3 sequence (P26663 1027-1657): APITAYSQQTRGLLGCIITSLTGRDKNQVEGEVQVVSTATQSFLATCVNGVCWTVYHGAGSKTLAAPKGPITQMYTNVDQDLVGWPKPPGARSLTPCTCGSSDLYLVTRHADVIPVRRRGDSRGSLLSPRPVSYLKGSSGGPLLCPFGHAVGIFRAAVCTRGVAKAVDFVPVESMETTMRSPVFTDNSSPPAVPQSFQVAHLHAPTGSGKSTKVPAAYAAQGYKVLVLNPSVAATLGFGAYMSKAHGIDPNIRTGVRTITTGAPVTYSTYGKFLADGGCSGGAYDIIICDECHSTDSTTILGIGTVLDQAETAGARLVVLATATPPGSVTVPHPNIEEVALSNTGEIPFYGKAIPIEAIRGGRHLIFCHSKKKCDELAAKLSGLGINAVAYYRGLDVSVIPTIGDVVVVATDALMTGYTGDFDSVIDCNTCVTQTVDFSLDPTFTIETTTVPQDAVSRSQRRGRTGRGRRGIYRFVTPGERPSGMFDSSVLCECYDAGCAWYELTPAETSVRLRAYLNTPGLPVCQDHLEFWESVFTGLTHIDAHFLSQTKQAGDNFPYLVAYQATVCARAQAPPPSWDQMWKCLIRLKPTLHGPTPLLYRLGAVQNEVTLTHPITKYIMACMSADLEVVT
T2 sequence (P26663 1027-1657): as above

COc1ccc2c(c1)c(C=C1C(=O)NC(=S)NC1=O)cn2C(=O)c1ccc2ccccc2c1 [PNR-3-82]
protease activity (protease): none of the two tested compounds had any inhibiting activity | RNase A activity (RNase A): none of the two tested compounds had any inhibiting activity | remaining activity at 1 µM (EndoG; 20 min, compound 1 μM, read-out: % EndoG activity in the presence of the compound): 21.8% | IC50 (EndoG; IC50 against EndoG, EndoG screening assay): 0.613 µM and 0.61 µM | SOD activity (SOD): none of the two tested compounds had any inhibiting activity | NS3 helicase activity, gel electrophoresis (NS3 helicase): confirmed the inhibition | IC50 (HCV NS3 helicase): ~20 µM and 21.4 µM

Reference: patent publication US20160075689A1, “POLYMERASE, ENDONUCLEASE, AND HELICASE INHIBITORS AND METHODS OF USING THEREOF” (THE BOARD OF TRUSTEES OF THE UNIVERSITY OF ARKANSAS, priority 2013, published 2016)
